Measured values: paper PMC8773749, “Combinatorial Virtual Screening Revealed a Novel Scaffold for TNKS Inhibition to Combat Colorectal Cancer” (Biomedicines, 2022)

Columns and labels:
[1] = biological target: T1, TNKS-1 (Homo sapiens, UniProt O95271); experiment: TNKS-1 histone ribosylation colorimetric assay, single concentration […]; type: biochemical
[2] = biological target: T1, TNKS-1; experiment: TNKS-1 histone ribosylation colorimetric assay (BPS Bioscience kit); type: biochemical

T1 sequence (O95271 whole entry): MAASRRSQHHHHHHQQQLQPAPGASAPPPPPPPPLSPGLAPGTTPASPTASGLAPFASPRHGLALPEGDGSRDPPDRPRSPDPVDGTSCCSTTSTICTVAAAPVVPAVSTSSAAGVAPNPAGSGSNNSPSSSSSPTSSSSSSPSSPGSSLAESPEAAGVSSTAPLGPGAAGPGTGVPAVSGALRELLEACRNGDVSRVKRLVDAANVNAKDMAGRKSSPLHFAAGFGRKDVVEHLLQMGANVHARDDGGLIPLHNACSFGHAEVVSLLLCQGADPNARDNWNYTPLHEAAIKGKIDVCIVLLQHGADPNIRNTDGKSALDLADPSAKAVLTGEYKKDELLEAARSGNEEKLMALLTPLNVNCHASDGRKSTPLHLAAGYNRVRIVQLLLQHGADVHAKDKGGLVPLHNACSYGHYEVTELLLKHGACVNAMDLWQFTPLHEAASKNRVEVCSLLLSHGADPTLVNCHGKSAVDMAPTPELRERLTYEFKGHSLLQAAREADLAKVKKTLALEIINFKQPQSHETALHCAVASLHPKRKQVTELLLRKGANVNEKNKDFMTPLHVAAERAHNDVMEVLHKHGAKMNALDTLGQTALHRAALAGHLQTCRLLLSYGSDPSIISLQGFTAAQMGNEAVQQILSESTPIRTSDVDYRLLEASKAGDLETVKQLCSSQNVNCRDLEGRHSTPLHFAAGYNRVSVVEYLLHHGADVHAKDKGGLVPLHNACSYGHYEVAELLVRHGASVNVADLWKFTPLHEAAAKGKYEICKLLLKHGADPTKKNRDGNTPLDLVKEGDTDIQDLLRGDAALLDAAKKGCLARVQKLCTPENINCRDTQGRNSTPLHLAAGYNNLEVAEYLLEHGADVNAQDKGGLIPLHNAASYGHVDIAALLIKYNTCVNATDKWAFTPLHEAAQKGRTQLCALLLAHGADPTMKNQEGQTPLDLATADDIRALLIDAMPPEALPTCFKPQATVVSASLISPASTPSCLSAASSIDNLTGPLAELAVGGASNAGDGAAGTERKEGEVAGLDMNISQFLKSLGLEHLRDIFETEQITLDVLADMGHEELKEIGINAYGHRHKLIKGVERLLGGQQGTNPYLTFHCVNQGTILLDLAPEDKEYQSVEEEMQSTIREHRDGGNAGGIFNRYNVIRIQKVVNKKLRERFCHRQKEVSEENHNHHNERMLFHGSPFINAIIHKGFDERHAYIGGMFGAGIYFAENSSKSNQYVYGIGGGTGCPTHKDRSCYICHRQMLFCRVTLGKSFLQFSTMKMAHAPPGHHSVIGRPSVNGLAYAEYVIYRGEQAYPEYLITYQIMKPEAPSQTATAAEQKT

Row | Compound | % of Inhibition at 10 μM / TNKS-1 ^c [1] | IC50 [2]
1 | CN(C)c1ccc2c(c1)oc(=O)c1ccccc12 [NSC102371] | 88.54 | –
2 | COc1ccc(-c2cc3ccccc3c(=O)o2)cc1 [NSC123012] | 50.92 | –
3 | Cc1c(C)c2ccc(N(C)C)cc2[nH]c1=O [NSC295092] | – | 66.1 nM
4 | CN(C)c1ccc2c3c(c(=O)oc2c1)CCC3 [NSC315247] | 60.07 | –
5 | Cc1c(Cl)c2ccc(N(C)C)cc2[nH]c1=O [NSC319963] | – | 21.9 nM
